Converted amounts (≈) assume the structure as drawn. Each block holds one molecule with its values, some of them ahead of it.
Assays:
in vitro [1] = conditions: human, THP-1 cells
Description: Selectivity index, ratio of IC50 for human THP1 cells to IC50 for Plasmodium falciparum

Plasmodium falciparum [2] = assay: microbe, parasite or virus in culture; conditions: K1
Description: Antiplasmodial activity against Plasmodium falciparum K1 by SYBR-green based assay

Plasmodium falciparum [3] = assay: microbe, parasite or virus in culture; conditions: NF54
Description: Antiplasmodial activity against Plasmodium falciparum NF54 by SYBR-green based assay

[4] = molecular target: Voltage-gated inwardly rectifying potassium channel KCNH2 (Homo sapiens, UniProt Q12809)
Plasmodium falciparum [5] = assay: microbe, parasite or virus in culture; conditions: 7G8
Description: Antiplasmodial activity against Plasmodium falciparum 7G8 harboring mutations conferring drug-resistance by SYBR-green based assay

in vitro [6] = conditions: human, hepatocytes
Description: Clearance in human hepatocytes assessed per million cells

in vitro [7] = conditions: human, microsomes
Description: Clearance in human microsomes

physchem [8] = conditions: buffer, pH 7.4
Description: Lipophilicity, logD of the compound at pH 7.4

Plasmodium falciparum [9] = assay: microbe, parasite or virus in culture; conditions: SB1-A6
Description: Antiplasmodial activity against Plasmodium falciparum SB1-A6 harboring mutations conferring drug-resistance by SYBR-green based assay

physchem [10] = conditions: buffer
Description: Aqueous solubility of the compound

Plasmodium falciparum [11] = assay: microbe, parasite or virus in culture; conditions: W2
Description: Antiplasmodial activity against Plasmodium falciparum W2 harboring mutations conferring drug-resistance by SYBR-green based assay

in vitro [12] = conditions: human, plasma
Description: Unbound fraction in human plasma

Plasmodium falciparum [13] = assay: microbe, parasite or virus in culture; conditions: Dd2
Description: Antiplasmodial activity against Plasmodium falciparum Dd2 harboring mutations conferring drug-resistance by SYBR-green based assay

in vivo [14] = conditions: mouse, plasma, 50 mg/kg
Description: AUClast in Plasmodium berghei infected mouse at 50 mg/kg treated with four once daily doses

Plasmodium berghei [15] = assay: Antiplasmodial activity against Plasmodium berghei infected in mouse assessed as reduction in parasitemia at 100 mg/kg treated with four once daily doses; assay type: functional
in vivo [16] = conditions: mouse, plasma, 30 mg/kg
Description: AUClast in Plasmodium berghei infected mouse at 30 mg/kg treated with four once daily doses

[17] = Half life in Plasmodium berghei infected mouse at 100 mg/kg treated with four once daily doses; assay type: ADME, organism-based; set-up: dose 100 mg/kg; conditions: in vivo
Plasmodium berghei [18] = assay: Antiplasmodial activity against Plasmodium berghei infected in mouse assessed as increase in mean survival days at 100 mg/kg treated with four once daily doses; assay type: functional
in vivo [19] = conditions: mouse, 30 mg/kg
[20] = Cmax in Plasmodium berghei infected mouse at 100 mg/kg treated with four once daily doses; assay type: ADME, organism-based; set-up: dose 100 mg/kg; conditions: in vivo
Plasmodium berghei [21] = assay: animal or person; conditions: in Mus musculus, read-out: INH
Description: Antiplasmodial activity against Plasmodium berghei infected in mouse assessed as reduction in parasitemia at 50 mg/kg treated with four once daily doses

Plasmodium berghei [22] = conditions: dose 30 mg/kg
Description: Antiplasmodial activity against Plasmodium berghei infected in mouse assessed as increase in mean survival days at 30 mg/kg treated with four once daily doses

in vivo [23] = conditions: mouse, 50 mg/kg
Description: Half life in Plasmodium berghei infected mouse at 50 mg/kg treated with four once daily doses

in vivo [24] = conditions: mouse, 30 mg/kg; remark: listed apart in the source
Description: Half life in Plasmodium berghei infected mouse at 30 mg/kg treated with four once daily doses

Plasmodium berghei [25] = assay: animal or person; conditions: in Mus musculus, read-out: INH; remark: listed apart in the source
Description: Antiplasmodial activity against Plasmodium berghei infected in mouse assessed as reduction in parasitemia at 30 mg/kg treated with four once daily doses

[26] = AUClast in Plasmodium berghei infected mouse at 100 mg/kg treated with four once daily doses; assay type: ADME, organism-based; set-up: time 0 - last, dose 100 mg/kg; conditions: plasma
in vivo [27] = conditions: mouse, 50 mg/kg; remark: listed apart in the source
Plasmodium berghei [28] = conditions: dose 50 mg/kg
Description: Antiplasmodial activity against Plasmodium berghei infected in mouse assessed as increase in mean survival days at 50 mg/kg treated with four once daily doses

in vivo [29] = conditions: rat, plasma, iv, 1 mg/kg
in vivo [30] = conditions: rat, po, 5 mg/kg
in vivo [31] = conditions: rat, po, 5 mg/kg; remark: listed apart in the source
in vivo [32] = conditions: rat, iv, 1 mg/kg
Description: Clearance in rat at 1 mg/kg, iv

in vivo [33] = conditions: rat, iv, 1 mg/kg; remark: listed apart in the source
Description: Volume of distribution at steady state in rat at 1 mg/kg, iv

in vivo [34] = conditions: rat, iv, 1 mg/kg; remark: listed apart in the source
Description: Half life in rat at 1 mg/kg, iv

in vivo [35] = conditions: rat, po, 5 mg/kg; remark: listed apart in the source
Description: Half life in rat at 5 mg/kg, po

Voltage-gated inwardly rectifying potassium channel KCNH2, sequence (Q12809 whole entry): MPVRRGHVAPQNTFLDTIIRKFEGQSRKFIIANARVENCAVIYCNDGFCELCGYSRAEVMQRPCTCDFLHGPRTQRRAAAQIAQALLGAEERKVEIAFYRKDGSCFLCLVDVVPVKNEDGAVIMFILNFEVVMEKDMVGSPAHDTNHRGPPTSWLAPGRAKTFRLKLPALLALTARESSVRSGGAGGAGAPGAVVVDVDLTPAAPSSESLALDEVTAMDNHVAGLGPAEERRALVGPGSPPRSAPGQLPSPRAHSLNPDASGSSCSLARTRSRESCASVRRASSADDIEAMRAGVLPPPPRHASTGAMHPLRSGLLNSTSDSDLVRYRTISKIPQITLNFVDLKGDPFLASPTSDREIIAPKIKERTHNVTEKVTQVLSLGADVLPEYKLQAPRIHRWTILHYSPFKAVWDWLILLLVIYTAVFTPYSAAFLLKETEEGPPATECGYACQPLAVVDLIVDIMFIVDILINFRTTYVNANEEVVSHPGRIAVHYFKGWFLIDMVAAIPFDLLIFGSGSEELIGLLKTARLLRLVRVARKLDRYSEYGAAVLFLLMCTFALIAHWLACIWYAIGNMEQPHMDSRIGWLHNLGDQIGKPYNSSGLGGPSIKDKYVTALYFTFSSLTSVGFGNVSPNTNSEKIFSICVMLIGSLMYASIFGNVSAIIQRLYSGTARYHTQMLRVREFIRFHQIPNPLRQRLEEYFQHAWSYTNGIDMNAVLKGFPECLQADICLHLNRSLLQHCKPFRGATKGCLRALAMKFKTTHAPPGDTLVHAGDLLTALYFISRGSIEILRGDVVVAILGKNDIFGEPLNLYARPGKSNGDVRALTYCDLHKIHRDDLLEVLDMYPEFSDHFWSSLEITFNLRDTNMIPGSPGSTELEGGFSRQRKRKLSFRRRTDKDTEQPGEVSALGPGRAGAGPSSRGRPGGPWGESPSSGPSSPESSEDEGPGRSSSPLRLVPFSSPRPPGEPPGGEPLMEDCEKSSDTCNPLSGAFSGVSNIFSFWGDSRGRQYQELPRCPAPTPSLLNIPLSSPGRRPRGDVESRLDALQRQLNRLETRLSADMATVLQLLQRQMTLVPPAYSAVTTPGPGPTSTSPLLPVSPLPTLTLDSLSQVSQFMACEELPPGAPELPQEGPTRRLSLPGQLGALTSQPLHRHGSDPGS

Structure (SMILES): CN1CCN(c2ccc3nc(Nc4ccc(Br)cc4)[nH]c3c2)CC1
selectivity ratio (in vitro [1]): > 1190
IC50 (Plasmodium falciparum [2]): 390 nM
IC50 (Plasmodium falciparum [3]): 210 nM

Structure (SMILES): CN1CCN(c2ccc3nc(Nc4ccccn4)[nH]c3c2)CC1
selectivity ratio (in vitro [1]): > 86
IC50 (Plasmodium falciparum [2]): > 500 nM
IC50 (Plasmodium falciparum [3]): > 500 nM

Structure (SMILES): Cc1ccc(Nc2nc3ccc(N4CCN(C)CC4)cc3[nH]2)nc1
IC50 [4]: 12700 nM
IC50 (Plasmodium falciparum [5]): 307 nM
hepatocyte CLint (in vitro [6]): 19.5 µL/min/1e6 cells
selectivity ratio (in vitro [1]): > 385
microsomal CLint (in vitro [7]): 4.8 µL/min/mg
logD (physchem [8]): 2.2
IC50 (Plasmodium falciparum [2]): 270 nM
IC50 (Plasmodium falciparum [9]): 86.2 nM
solubility (physchem [10]): 1170 µM (≈ 377 µg/mL)
IC50 (Plasmodium falciparum [11]): 437 nM
fraction unbound (in vitro [12]): 0.183
IC50 (Plasmodium falciparum [13]): 201 nM
IC50 (Plasmodium falciparum [3]): 130 nM

Structure (SMILES): CN1CCN(c2ccc3nc(Nc4ccc(C(F)(F)F)cn4)[nH]c3c2)CC1
AUC(0-t) (in vivo [14]): 33.7 µM·h
inhibition in vivo at 100 mg/kg (Plasmodium berghei [15]): 99.9%
AUC(0-t) (in vivo [16]): 19.2 µM·h
selectivity ratio (in vitro [1]): 890
half-life [17]: 4.9 h
MSD (Plasmodium berghei [18]): 24 days
Cmax (in vivo [19]): 3.3 µM
Cmax [20]: 6.1 µM
inhibition in vivo at 50 mg/kg (Plasmodium berghei [21]): 99.9%
MSD (Plasmodium berghei [22]): 10 days
IC50 (Plasmodium falciparum [2]): 120 nM
half-life (in vivo [23]): 5.4 h
half-life (in vivo [24]): 3.7 h
inhibition in vivo at 30 mg/kg (Plasmodium berghei [25]): 81.3%
AUC(0-t) [26]: 41.6 µM·h
Cmax (in vivo [27]): 5 µM
MSD (Plasmodium berghei [28]): 15 days
IC50 (Plasmodium falciparum [3]): 82 nM

Structure (SMILES): CN1CCN(c2ccc3nc(Nc4ccc(C(F)(F)F)nc4)[nH]c3c2)CC1
selectivity ratio (in vitro [1]): > 500
IC50 (Plasmodium falciparum [2]): > 500 nM
IC50 (Plasmodium falciparum [3]): > 500 nM

Structure (SMILES): Brc1ccc(Nc2nc3ccc(N4CCNCC4)cc3[nH]2)nc1
AUC(0-t) (in vivo [14]): 202 µM·h
selectivity ratio (in vitro [1]): 961
inhibition in vivo at 50 mg/kg (Plasmodium berghei [21]): 99.9%
IC50 (Plasmodium falciparum [2]): 278 nM
half-life (in vivo [23]): 4.5 h
Cmax (in vivo [27]): 25.5 µM
MSD (Plasmodium berghei [28]): 11 days
IC50 (Plasmodium falciparum [3]): 39 nM

Structure (SMILES): Brc1ccc(Nc2nc3ccc(N4CCOCC4)cc3[nH]2)nc1
selectivity ratio (in vitro [1]): > 100
IC50 (Plasmodium falciparum [2]): > 500 nM
IC50 (Plasmodium falciparum [3]): > 500 nM

Structure (SMILES): CN1CCC(c2ccc3nc(Nc4ccc(C(F)(F)F)cn4)[nH]c3c2)CC1
hepatocyte CLint (in vitro [6]): 4.7 µL/min/1e6 cells
AUC(0-t) (in vivo [14]): 131 µM·h
AUC(0-t) (in vivo [16]): 54 µM·h
AUC (in vivo [29]): 6 µM·h
microsomal CLint (in vitro [7]): < 4 µL/min/mg
Cmax (in vivo [30]): 0.5 µM
Cmax (in vivo [19]): 5.2 µM
logD (physchem [8]): 3
inhibition in vivo at 50 mg/kg (Plasmodium berghei [21]): 99.8%
MSD (Plasmodium berghei [22]): 25 days
IC50 (Plasmodium falciparum [2]): 59 nM
half-life (in vivo [23]): 18.5 h
solubility (physchem [10]): 121 µM (≈ 45.4 µg/mL)
half-life (in vivo [24]): 9.3 h
bioavailability (in vivo [31]): 79%
inhibition in vivo at 30 mg/kg (Plasmodium berghei [25]): 98.9%
Cmax (in vivo [27]): 8.8 µM
clearance (in vivo [32]): 14.9 mL/min/kg
fraction unbound (in vitro [12]): 0.134
Vd (in vivo [33]): 16.9 L/kg
MSD (Plasmodium berghei [28]): 30 days
IC50 (Plasmodium falciparum [3]): 36 nM
half-life (in vivo [34]): 14.9 h
half-life (in vivo [35]): 19.2 h

Structure (SMILES): CN1C2CCC1CC(c1ccc3nc(Nc4ccc(C(F)(F)F)cn4)[nH]c3c1)C2 (centres undefined)
selectivity ratio (in vitro [1]): 308
IC50 (Plasmodium falciparum [2]): 200 nM
IC50 (Plasmodium falciparum [3]): 94 nM

Structure (SMILES): Cc1nc(Nc2nc3ccc(N4CCN(C)CC4)cc3[nH]2)ccc1F
IC50 (Plasmodium falciparum [5]): 98.8 nM
selectivity ratio (in vitro [1]): > 1050
IC50 (Plasmodium falciparum [2]): 110 nM
IC50 (Plasmodium falciparum [11]): 106 nM
IC50 (Plasmodium falciparum [3]): 48 nM

Structure (SMILES): Cc1nc(Nc2nc3ccc(C4CCN(C)CC4)cc3[nH]2)cc(C2CC2)c1F
selectivity ratio (in vitro [1]): 692
IC50 (Plasmodium falciparum [2]): 30 nM
IC50 (Plasmodium falciparum [3]): 13 nM

Structure (SMILES): C[C@@H]1CC[C@H]2[C@@H](C)C(=O)O[C@@H]3O[C@@]4(C)CC[C@@H]1[C@]32OO4 [ARTEMISININ]
IC50 (Plasmodium falciparum [5]): 1.3 nM
IC50 (Plasmodium falciparum [9]): 16.6 nM
IC50 (Plasmodium falciparum [11]): 6.5 nM
IC50 (Plasmodium falciparum [13]): 10.3 nM
IC50 (Plasmodium falciparum [3]): 7.1 nM

Structure (SMILES): O=C1C(O)=C([C@H]2CC[C@H](c3ccc(Cl)cc3)CC2)C(=O)c2ccccc21 [ATOVAQUONE]
IC50 (Plasmodium falciparum [5]): 2.3 nM
IC50 (Plasmodium falciparum [2]): 2.3 nM
IC50 (Plasmodium falciparum [9]): > 2000 nM
IC50 (Plasmodium falciparum [13]): 2 nM

Structure (SMILES): CCc1nc(N)nc(N)c1-c1ccc(Cl)cc1 [PYRIMETHAMINE]
IC50 (Plasmodium falciparum [9]): 10.9 nM

Second part, led by results:

hepatocyte CLint (in vitro [6]): 7.5 µL/min/1e6 cells
microsomal CLint (in vitro [7]): < 4 µL/min/mg
logD (physchem [8]): 3.2
IC50 (Plasmodium falciparum [2]): 166 nM
solubility (physchem [10]): > 1000 µM
fraction unbound (in vitro [12]): 0.275
IC50 (Plasmodium falciparum [3]): 93 nM
Structure (SMILES): CN1CCN(Cc2ccc3nc(Nc4ccc(C(F)(F)F)cn4)[nH]c3c2)CC1

IC50 (Plasmodium falciparum [2]): 210 nM
IC50 (Plasmodium falciparum [3]): 130 nM
Structure (SMILES): OCCN1CCN(c2ccc3nc(Nc4ccc(C(F)(F)F)cn4)[nH]c3c2)CC1
selectivity ratio (in vitro [1]): > 1110

IC50 (Plasmodium falciparum [2]): 54 nM
IC50 (Plasmodium falciparum [3]): 29 nM
Structure (SMILES): CN1CCN(c2cc3[nH]c(Nc4ccc(C(F)(F)F)cn4)nc3cn2)CC1
selectivity ratio (in vitro [1]): 1030

hepatocyte CLint (in vitro [6]): 9 µL/min/1e6 cells
microsomal CLint (in vitro [7]): < 4 µL/min/mg
logD (physchem [8]): 3
IC50 (Plasmodium falciparum [2]): 160 nM
solubility (physchem [10]): > 1000 µM
fraction unbound (in vitro [12]): 0.301
IC50 (Plasmodium falciparum [3]): 110 nM
Structure (SMILES): CN1CCN(c2cc(Cl)c3nc(Nc4ccc(Br)cn4)[nH]c3c2)CC1

IC50 (Plasmodium falciparum [2]): > 500 nM
IC50 (Plasmodium falciparum [3]): > 500 nM
Structure (SMILES): CN1CCN(c2nc3[nH]c(Nc4ccc(Br)cn4)nc3cc2F)CC1
selectivity ratio (in vitro [1]): > 100

IC50 (Plasmodium falciparum [2]): 85 nM
IC50 (Plasmodium falciparum [3]): 53 nM
Structure (SMILES): CN1CCC(c2ccc3nc(Nc4ccc(C(F)(F)F)cn4)[nH]c3c2)C1 (centres undefined)

IC50 (Plasmodium falciparum [2]): 119 nM
IC50 (Plasmodium falciparum [3]): 56 nM
Structure (SMILES): FC(F)(F)c1ccc(Nc2nc3ccc(N4CCN5CCCC5C4)cc3[nH]2)nc1 (centres undefined)
selectivity ratio (in vitro [1]): 357

IC50 (Plasmodium falciparum [2]): > 500 nM
IC50 (Plasmodium falciparum [3]): 450 nM
Structure (SMILES): CN1CCN(C(=O)c2ccc3nc(Nc4ccc(Br)cn4)[nH]c3c2)CC1
selectivity ratio (in vitro [1]): 548

IC50 (Plasmodium falciparum [2]): 110 nM
IC50 (Plasmodium falciparum [3]): 44 nM
Structure (SMILES): Cc1nc(Nc2nc3cnc(N4CCN(C)CC4)cc3[nH]2)ccc1Cl
selectivity ratio (in vitro [1]): 500

IC50 (Plasmodium falciparum [2]): 130 nM
IC50 (Plasmodium falciparum [3]): 80 nM
Structure (SMILES): CN1CCC(c2ccc3nc(Nc4ncc(C(F)(F)F)cc4Cl)[nH]c3c2)CC1

hepatocyte CLint (in vitro [6]): 11.3 µL/min/1e6 cells
microsomal CLint (in vitro [7]): 21.8 µL/min/mg
logD (physchem [8]): 3.9
IC50 (Plasmodium falciparum [2]): 26 nM
solubility (physchem [10]): 5.6 µM (≈ 2.14 µg/mL)
fraction unbound (in vitro [12]): 0.051
IC50 (Plasmodium falciparum [3]): 17 nM
Structure (SMILES): Cc1nc(Nc2nc3cnc(N4CCN(C)CC4)cc3[nH]2)cc(C2CC2)c1F

From ChEMBL document CHEMBL3351865, “N-aryl-2-aminobenzimidazoles: novel, efficacious, antimalarial lead compounds” (J Med Chem, 2014)
